In ChEMBL document CHEMBL5465560, “Selectivity Literature for EUbOPEN Chemogenomic Library” (2024):
pIC50: −log10 of the molar value.

Legend:
[1] = molecular target: Death-associated protein kinase 3 (Homo sapiens) (UniProt O43293); assay: Selectivity interaction (KinomeScan (DiscoverX)) EUB0000666a DAPK3; conditions: at 10 µM
[2] = molecular target: T1, Cyclin-dependent kinase-like 5 (Homo sapiens) (UniProt O76039); assay: Selectivity interaction (KinomeScan (DiscoverX)) EUB0001079a CDKL5; conditions: at 1 µM
T1 sequence (whole entry): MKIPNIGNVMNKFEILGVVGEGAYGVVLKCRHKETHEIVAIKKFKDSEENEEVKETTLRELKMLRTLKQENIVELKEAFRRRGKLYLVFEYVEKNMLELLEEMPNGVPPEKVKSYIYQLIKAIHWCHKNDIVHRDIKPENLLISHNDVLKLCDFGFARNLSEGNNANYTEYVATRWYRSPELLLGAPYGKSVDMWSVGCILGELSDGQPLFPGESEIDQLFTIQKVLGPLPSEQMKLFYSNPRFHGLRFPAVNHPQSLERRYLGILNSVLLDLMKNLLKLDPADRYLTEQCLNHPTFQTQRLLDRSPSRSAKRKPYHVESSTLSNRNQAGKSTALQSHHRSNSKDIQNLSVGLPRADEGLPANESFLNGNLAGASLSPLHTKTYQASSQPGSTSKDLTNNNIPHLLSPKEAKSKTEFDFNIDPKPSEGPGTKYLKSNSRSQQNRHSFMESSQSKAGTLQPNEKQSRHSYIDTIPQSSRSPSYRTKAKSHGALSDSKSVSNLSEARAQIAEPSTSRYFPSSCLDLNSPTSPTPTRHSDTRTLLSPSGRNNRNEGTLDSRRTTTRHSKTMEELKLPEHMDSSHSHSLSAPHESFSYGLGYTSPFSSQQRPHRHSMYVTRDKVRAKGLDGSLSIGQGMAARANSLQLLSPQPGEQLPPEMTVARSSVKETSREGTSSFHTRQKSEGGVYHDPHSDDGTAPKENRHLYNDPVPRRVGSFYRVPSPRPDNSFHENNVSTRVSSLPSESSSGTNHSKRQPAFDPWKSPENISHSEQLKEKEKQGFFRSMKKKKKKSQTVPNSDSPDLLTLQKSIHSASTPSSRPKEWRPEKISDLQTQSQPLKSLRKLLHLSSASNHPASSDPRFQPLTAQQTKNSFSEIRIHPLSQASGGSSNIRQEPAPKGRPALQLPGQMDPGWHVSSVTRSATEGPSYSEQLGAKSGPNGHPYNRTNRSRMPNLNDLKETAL

[3] = molecular target: T2, Dual specificity mitogen-activated protein kinase kinase 4 (Homo sapiens) (UniProt P45985); assay: Selectivity interaction (KinomeScan (DiscoverX)) EUB0001079a MAP2K4; conditions: at 1 µM
T2 sequence (whole entry): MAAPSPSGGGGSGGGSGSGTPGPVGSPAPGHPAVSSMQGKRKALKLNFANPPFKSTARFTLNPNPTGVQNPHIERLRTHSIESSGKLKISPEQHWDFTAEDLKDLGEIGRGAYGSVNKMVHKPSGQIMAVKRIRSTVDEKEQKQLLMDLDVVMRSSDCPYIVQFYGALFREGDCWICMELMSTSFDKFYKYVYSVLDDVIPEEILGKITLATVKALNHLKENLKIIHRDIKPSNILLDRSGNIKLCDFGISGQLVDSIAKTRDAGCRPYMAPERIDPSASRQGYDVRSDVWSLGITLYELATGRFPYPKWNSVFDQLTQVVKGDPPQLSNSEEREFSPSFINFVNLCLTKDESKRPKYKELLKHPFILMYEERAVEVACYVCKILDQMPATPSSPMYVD

[4] = molecular target: cGMP-inhibited 3',5'-cyclic phosphodiesterase 3A (Homo sapiens, UniProt Q14432); assay: Selectivity interaction (Phosphodiesterase 3 from human platelets ) EUB0000877a PDE3A; format: cell-based, Platelet
[5] = molecular target: STE20/SPS1-related proline-alanine-rich protein kinase (Homo sapiens) (UniProt Q9UEW8); assay: Selectivity interaction (KinomeScan (DiscoverX)) EUB0000618a STK39; conditions: at 10 µM
[6] = molecular target: Cyclin-dependent kinase 17 (Homo sapiens) (UniProt Q00537); assay: Selectivity interaction (KinomeScan (DiscoverX)) EUB0000695a CDK17; conditions: at 100 nM
Chain of Cyclin-dependent kinase 17 (Homo sapiens) (Q00537 whole entry, looked up): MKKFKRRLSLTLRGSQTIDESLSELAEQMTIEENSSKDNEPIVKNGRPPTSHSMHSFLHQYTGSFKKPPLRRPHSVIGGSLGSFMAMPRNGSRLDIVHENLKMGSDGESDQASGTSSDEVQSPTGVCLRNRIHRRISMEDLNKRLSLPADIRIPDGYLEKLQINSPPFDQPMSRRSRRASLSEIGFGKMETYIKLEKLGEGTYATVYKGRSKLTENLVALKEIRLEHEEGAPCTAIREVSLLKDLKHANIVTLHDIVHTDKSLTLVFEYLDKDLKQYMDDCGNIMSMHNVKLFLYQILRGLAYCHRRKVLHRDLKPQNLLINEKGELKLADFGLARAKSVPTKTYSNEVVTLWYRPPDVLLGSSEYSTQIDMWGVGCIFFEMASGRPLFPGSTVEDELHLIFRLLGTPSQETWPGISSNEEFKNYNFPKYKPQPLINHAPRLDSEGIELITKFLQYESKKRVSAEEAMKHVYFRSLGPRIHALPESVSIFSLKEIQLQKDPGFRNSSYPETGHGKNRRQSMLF

Chain of cGMP-inhibited 3',5'-cyclic phosphodiesterase 3A (Q14432 whole entry): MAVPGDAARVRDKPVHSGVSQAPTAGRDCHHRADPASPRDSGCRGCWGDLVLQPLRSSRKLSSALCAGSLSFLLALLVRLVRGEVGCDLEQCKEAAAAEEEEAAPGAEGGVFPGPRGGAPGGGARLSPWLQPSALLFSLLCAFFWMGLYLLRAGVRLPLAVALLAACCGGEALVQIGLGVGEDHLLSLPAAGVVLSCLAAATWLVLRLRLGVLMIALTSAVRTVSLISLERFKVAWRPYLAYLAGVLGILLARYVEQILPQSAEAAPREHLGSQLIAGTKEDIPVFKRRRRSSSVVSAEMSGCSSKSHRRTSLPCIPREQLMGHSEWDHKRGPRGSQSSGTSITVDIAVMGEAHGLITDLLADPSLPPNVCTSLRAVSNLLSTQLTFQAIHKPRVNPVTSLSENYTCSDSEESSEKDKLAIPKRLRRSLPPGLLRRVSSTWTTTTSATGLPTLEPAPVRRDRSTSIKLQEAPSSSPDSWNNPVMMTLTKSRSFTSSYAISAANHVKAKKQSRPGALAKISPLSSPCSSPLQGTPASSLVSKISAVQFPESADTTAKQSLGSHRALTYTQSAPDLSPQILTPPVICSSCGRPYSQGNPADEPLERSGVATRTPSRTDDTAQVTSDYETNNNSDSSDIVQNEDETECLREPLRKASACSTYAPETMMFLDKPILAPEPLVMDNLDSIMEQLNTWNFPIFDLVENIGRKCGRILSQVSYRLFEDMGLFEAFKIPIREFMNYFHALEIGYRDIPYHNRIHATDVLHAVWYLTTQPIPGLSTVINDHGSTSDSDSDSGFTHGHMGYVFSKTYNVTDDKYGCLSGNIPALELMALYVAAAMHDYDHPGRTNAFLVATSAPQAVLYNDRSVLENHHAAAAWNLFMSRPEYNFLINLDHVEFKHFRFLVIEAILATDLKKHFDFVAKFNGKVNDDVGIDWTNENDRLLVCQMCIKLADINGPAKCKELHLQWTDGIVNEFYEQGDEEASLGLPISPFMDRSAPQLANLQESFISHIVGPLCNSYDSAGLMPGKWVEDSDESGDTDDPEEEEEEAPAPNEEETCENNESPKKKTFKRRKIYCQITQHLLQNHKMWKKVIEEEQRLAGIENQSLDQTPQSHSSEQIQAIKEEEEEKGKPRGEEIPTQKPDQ
Chain of Death-associated protein kinase 3 (Homo sapiens) (O43293 whole entry, looked up): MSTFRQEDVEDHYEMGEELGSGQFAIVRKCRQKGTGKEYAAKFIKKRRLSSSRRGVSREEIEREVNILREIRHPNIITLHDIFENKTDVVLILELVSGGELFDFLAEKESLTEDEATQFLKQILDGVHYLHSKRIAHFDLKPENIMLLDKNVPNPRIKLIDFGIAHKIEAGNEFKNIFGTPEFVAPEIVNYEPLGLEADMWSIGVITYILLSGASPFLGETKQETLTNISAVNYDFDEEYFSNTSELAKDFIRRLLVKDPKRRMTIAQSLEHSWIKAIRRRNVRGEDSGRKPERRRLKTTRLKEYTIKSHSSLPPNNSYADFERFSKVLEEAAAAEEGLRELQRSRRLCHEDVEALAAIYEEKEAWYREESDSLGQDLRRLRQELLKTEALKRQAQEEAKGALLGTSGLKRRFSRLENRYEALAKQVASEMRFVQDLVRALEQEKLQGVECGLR

Work on `O=C(NOC[C@H](O)CO)c1ccc(F)c(F)c1Nc1ccc(I)cc1F` yielded a % of control [1] of 100%.
In the case of `Nc1cnc(N2CCc3cc(S(=O)(=O)Nc4c(F)cc(Cl)cc4F)cc(N4CCCC4=O)c32)nc1` [TP-020n], the % of control [2] was 88% and the % of control [3] was 100%.
`CCC(=O)N1CC[C@H](Nc2ncnc3c2CN(c2cnc(OC)c(C(F)(F)F)c2)CC3)C1` [LENIOLISIB] was tested, and the pIC50 [4] was < 4.52.
With `O[C@H]1CC[C@H](Nc2ncc3nc(Nc4c(F)cc(F)cc4F)n([C@H]4CCOC4)c3n2)CC1` the % of control [5] was 100%.
`Cc1cc(F)c(C(=O)Nc2cccc(-c3nncn3C(C)C)n2)cc1-n1cnc(C2CC2)c1` was tested, and the % of control [6] was 100%.
